How the values were obtained:
Assay type in all cases: cell-based
[1] = system: DA neurons; experiment: [3H] DA uptake, MMT alone in rat mesencephalic neuron-glia cultures (neurotrophic effect); conditions: for increase of DA uptake capacity by MMT alone: one week
Procedure: Rat and mouse ventral mesencephalic neuron-glia cultures were prepared using a described protocol (Gao H M, Hong J S, Zhang W Q, Liu B (2002) Distinct Role for Microglia in Rotenone-Induced Degeneration of Dopaminergic Neurons. J Neurosci 22(3):782-790). Briefly, midbrain tissues were dissected from day 14 Fisher 344 rat embryos or day 14 mouse embryos (PHOX^+/+ or PHOX^−/−). Cells were dissociated via gentle mechanical trituration in minimum essential medium (MEM) and immediately seeded (5×10^5/well) in poly D-lysine (20 μg/mL) precoated 24-well plates. Cells were seeded in maintenance media and treated with the treatment media described previously (Gao H M, Hong J S, Zhang W Q, Liu B (2002) Distinct Role for Microglia in Rotenone-Induced Degeneration of Dopaminergic Neurons. J Neurosci 22(3):782-790). Three days after seeding, the cells were replenished with 500 μL of fresh maintenance media. Cultures were exposed 7 days after seeding. At the time of treatment, the composition of the cultures was approximately 48% astrocytes, 11% microglia, 40% neurons, and 1 to 1.5% TH-immunoreactive (ir) neurons.
(§1) Cells were incubated in Krebs-Ringer buffer (16 mM NaH2PO4, 1.2 mM MgSO4, 1.3 mM EDTA, […], for 21 min at 37° C. with 1 μM [^3H] DA. Nonspecific uptake was blocked for DA with 10 μM mazindole. After incubation, cells were washed three times with 1 mL/well of ice-cold Krebs-Ringer buffer. Cells were then lysed with 0.5 mL/well of 1 N NaOH and mixed with 15 mL of scintillation fluid. Radioactivity was measured on a scintillation counter, where specific [^3H] DA uptake was calculated by subtracting the mazindole.
Rat mesencephalic neuron-glia cultures were pretreated for 30 min with vehicle or 1, 3, 10 μM MMT before adding LPS (2.5 to 5 ng/ml) to the cultures. One week later, the neurotoxic effect of LPS on DA neurons were assessed by both [H^3] DA uptake, which measures the functional capacity of high affinity uptake of DA cells and cell count of tyrosine hydroxylase-positive (TH-ir) cells. [H^3] […]

[2] = system: DA neurons; experiment: MPP+-induced reduction in DA uptake in neuron-enriched cultures; conditions: MMT 1, 3, or 10 μM pre-treatment
Procedure: Mesencephalic neuron-glia cultures were seeded (5×10^5/well) in 24 well plates precoated with poly D-lysine. Thirty-six hours postseeding, 5-10 μM cytosine β-D-arabinofuranoside was added to the culture. After 2 days, the cytosine β-D-arabinofuranoside was removed and replaced with fresh media. Neuron-enriched cultures are 98% pure, as indicated by ICC staining with OX-42 and GFAP antibodies. Neuron-enriched cultures were treated 7 days post-seeding. For microglia add-back cultures, the microglia were plated on top of the neuron-enriched culture at 6 days postseeding, resulting in the addition of either 10% (500 μL of 1×10^5) or 20% (500 μL of 2×10^5) microglia. […]
as §1
To determine whether the neuroprotective effect of MMT was dependent on the presence of glial cells, the effects of MMT on the neuron-enriched cultures were determined. […]

[3] = system: PGE2; experiment: PGE2 ELISA after LPS
Procedure: The production of TNF-α was measured with a commercial ELISA kit from R&D Systems. The PGE2 release was measured with a commercial ELISA kit from Cayman Chemical Company.
Neuron-glia cultures were pretreated for 30 min with MMT (3 μM) or vehicle before LPS stimulation. […] Production of superoxide (30 min after LPS) and iROS (2 h after LPS) was decreased by MMT treatment (FIGS. 6A and 6B). […] The production of PGE2 in cultures pretreated with 3 and 10 μM MMT decreased by 23% and 27% respectively (FIG. 6E).

Compound: CC12CC3CC(C)(C1)CC(N)(C3)C2.Cl [MMT, 1-amino-3,5-dimethyladamantane hydrochloride]
- increase of DA uptake capacity by MMT alone ([1]; 3 μM MMT): 30%
- increase of DA uptake capacity by MMT alone ([1]; 10 μM MMT): 80%
- effect against spontaneous DA neurons death ([1]; MMT alone, rat primary midbrain neuron-glia cultures): dose-dependent surviving-promoting effects
- protection against MPP+-induced reduction in DA uptake [2]: failed to protect
- decrease of PGE2 production ([3]; pretreated with 3 μM MMT): 23%
- decrease of PGE2 production ([3]; pretreated with 10 μM MMT): 27%

Source: US20150080475A1, “Memantine Protects Inflammation-Related Degeneration of Dopamine Neurons Through Inhibition of Over-Activated Microglia and Release of Neurotrophic Factors From Astroglia” (priority 2009, published 2015)
